Test results reported in PMC7948503, “Optimization of a peptide ligand for the adhesion GPCR ADGRG2 provides a potent tool to explore receptor biology” (The Journal of Biological Chemistry, 2020).
One block for each molecule: values may come before it. Starred links: 1 amine or outer side, 2 acyl side, 3 side chain; linkers in the order of their positions; H or OH if unused. Positions of bridges follow the written chain, without caps; N, C: chain ends. Non-standard residues stand in square brackets, D forms with d. Residues, ends and D or L forms follow the SMILES beside them. No end group written: not given here. X1 = CC(=O)NC(C(=O)OC(C(C)C)C(N[*:1])C(=O)[*:2])C(O)C(C)C; Phe(4-Me) = Cc1ccc(C[C@H](N)C(=O)O)cc1; 1Nal = N[C@@H](Cc1cccc2ccccc12)C(=O)O; PhLac = O=C(O)[CH](O)Cc1ccccc1; NMeT = CN[CH](C(=O)O)[CH](C)O; NMeA = CN[CH](C)C(=O)O; NMeDha = C=C(NC)C(=O)O

What was measured:
ADGRG2-ΔGPS-β = target: T1, ADGRG2-ΔGPS-β (Mus musculus, UniProt Q8CJ12); assay: GloSensor cAMP assay, HEK293 transfected with ADGRG2-ΔGPS-β; assay type: cell-based; details: cAMP Glosensor; for EC50 compared with wildtype p15 or other mutants: concentration-response curves, ADGRG2-ΔGPS-β; for EC50: HEK293 transfected with ADGRG2-ΔGPS-β, increasing peptide concentration, repeated six times
T1 construct: the entire ECD (including the entire GPS motif) was removed (ADGRG2-ΔGPS-β); expressed in transfected cells; host or cells: HEK293
T1 sequence (Q8CJ12 618-1009 limits assumed, stated change not applied): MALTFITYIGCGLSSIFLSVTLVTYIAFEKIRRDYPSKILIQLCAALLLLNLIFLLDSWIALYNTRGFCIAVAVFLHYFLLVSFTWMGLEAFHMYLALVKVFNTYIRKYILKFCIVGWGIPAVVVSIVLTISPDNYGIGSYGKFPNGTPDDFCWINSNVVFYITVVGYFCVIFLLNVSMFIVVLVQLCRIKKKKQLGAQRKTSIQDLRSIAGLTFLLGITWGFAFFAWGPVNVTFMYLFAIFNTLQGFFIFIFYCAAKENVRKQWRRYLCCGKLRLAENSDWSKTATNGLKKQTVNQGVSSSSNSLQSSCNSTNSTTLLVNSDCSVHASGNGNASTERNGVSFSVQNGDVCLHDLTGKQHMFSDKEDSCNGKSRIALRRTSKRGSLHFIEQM
Excerpt: (§1) Wildtype ADGRG2 full-length (ADGRG2-FL) was cloned from mouse total cDNA libraries using the following primers: forward, […]; reverse, […], and then ADGRG2-FL, ADGRG2 C-terminal truncation mutant (ADGRG2-β), and ADGRG2-ΔGPS-β (the entire ECD of ADGRG2 was deleted) were subcloned into the pcDNA3.1 expression vector. The ADGRG2-ΔGPS-β mutants (T610A, Y611A, C614A, S661A, W662A, I663A, L665A, Y666A，N667A, F671A, L679A, L683A, I730A, V731A, F741A, F747A, W757A, I758A, N759A, S760A, V762A, F764A, Y765A, V768A, V769A, F772A, V774A, W824A, F826A, F828A, F829A, V834A, V836A, F838A, M839A, I844A, F845A) were generated using a QuikChange Mutagenesis Kit (Stratagene). All mutations were verified by DNA sequencing.
(§2) Human embryonic kidney 293 (HEK293) cells were maintained in Dulbecco’s modified Eagle’s medium supplemented with 10% fetal bovine serum, penicillin (100 IU/ml), and streptomycin (100 μg/ml) as described ([6], [38]). For receptor or other protein expression, plasmids carrying the desired genes were transfected into cells using Lipofectamine 2000 (Invitrogen).
(§3) The Glosensor cAMP assay was performed as described ([6], [39], [40]). HEK293 cells were transfected with the GloSensor plasmid and the desired expression plasmids in 24-well dishes. Twenty-four hours after transfection, the cells were plated on 96-well plates at a cell density of 20,000 cells/well. The cells were maintained in Dulbecco’s modified Eagle’s medium for another 24 h, washed with PBS, and then incubated with 100 μl of solution containing 10% fetal bovine serum, 2% (v/v) GloSensor cAMP reagent, and 88% CO2-independent medium in each well for 2 h. The cAMP signal was examined using a luminescence counter (Mithras LB 940).

ADGRG2 = assay: CalfluxVTN Ca2+ assay; assay type: cell-based, mouse; details: Gq/11 selective inhibitor
Procedure: For the Ca^2+ assays, HEK293 cells in 24-well dishes were cotransfected with plasmids encoding ADGRG2 or its mutants, CalfluxVTN constructs were used at a 6:1 ratio. Empty vector pcDNA3.1(+) was used to normalize the total amount of transfected plasmid DNA. The transfection and CalfluxVTN Ca^2+ assays were performed as previously reported ([28], [29], [41]) with minor modifications. In brief, 24 h post transfection, cells were harvested and distributed in 96-well flat-bottomed white microplates. After another 24 h, the cells were processed accordingly and then were added with the Nluc substrate furimazine (5 μM). The BRET signal was calculated by measuring the ratio of the light emitted by the Venus reporter (535 nm) relative to light emitted by the Nluc reporter (475 nm). The average baseline value (basal BRET ratio) recorded prior to agonist stimulation was subtracted from the experimental BRET signal values to obtain the ΔBRET ratio.

ADGRG2-FL = target: T2, ADGRG2-FL (Mus musculus, UniProt Q8CJ12); assay: GloSensor cAMP assay, HEK293 transfected with ADGRG2-FL; assay type: cell-based; details: for p15 activity after alanine substitution (cAMP level): alanine scanning, 100 μM peptide, HEK293 ADGRG2-FL, Glosensor, compared with p15-WT, repeated six times; for EC50: HEK293 transfected with ADGRG2-FL, increasing peptide concentration, cAMP Glosensor, repeated 6 times
T2 construct: Wildtype ADGRG2 full-length (ADGRG2-FL) was cloned from mouse total cDNA libraries; expressed in transfected cells; host or cells: HEK293
T2 sequence (Q8CJ12 38-995 isoform Q8CJ12-3 limits assumed): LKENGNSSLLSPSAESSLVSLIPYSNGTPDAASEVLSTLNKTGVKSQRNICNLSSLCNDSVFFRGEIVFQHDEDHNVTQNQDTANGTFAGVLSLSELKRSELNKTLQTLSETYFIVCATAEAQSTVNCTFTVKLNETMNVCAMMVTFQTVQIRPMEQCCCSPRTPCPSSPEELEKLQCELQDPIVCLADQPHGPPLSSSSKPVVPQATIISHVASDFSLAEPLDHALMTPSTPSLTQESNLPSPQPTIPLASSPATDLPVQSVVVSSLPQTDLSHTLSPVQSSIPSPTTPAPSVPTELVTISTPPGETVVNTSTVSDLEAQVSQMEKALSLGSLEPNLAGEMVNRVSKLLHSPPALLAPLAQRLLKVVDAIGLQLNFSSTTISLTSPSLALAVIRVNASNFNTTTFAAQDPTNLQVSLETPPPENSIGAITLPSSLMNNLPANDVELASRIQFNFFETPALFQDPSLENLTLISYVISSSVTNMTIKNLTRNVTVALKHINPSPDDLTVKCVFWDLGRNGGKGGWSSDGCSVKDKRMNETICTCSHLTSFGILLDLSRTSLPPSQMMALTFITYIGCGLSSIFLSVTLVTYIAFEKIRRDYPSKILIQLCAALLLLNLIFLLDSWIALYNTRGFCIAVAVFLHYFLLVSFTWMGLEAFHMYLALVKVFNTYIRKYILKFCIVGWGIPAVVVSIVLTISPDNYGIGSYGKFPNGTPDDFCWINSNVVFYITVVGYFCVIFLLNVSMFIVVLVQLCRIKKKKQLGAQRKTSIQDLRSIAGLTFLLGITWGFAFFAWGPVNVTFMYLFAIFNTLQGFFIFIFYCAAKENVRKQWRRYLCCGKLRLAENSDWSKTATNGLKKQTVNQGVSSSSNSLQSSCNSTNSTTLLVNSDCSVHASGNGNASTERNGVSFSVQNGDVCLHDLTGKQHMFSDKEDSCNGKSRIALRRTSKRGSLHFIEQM
Excerpt: as §1, §2, §3

[1] = target: Rluc-ADGRG2-ΔGPS-β wildtype (mouse)

EC50 compared with wildtype p15 or other mutants (ADGRG2-ΔGPS-β): lower EC50 value than wildtype p15
Molecule: CC[C@H](C)[C@H](NC(=O)CNC(=O)[C@H](Cc1cccc2ccccc12)NC(=O)[C@H](CO)NC(=O)[C@@H](N)[C@@H](C)O)C(=O)N[C@@H](CC(C)C)C(=O)N[C@@H](CC(C)C)C(=O)N[C@@H](CC(=O)O)C(=O)N[C@@H](CC(C)C)C(=O)N[C@@H](CO)C(=O)N[C@@H](CCCNC(=N)N)C(=O)N[C@H](C(=O)N[C@@H](CO)C(=O)N[C@@H](CC(C)C)C(=O)N1CCC[C@H]1C(=O)O)[C@@H](C)O [F3(1-Nal)] (H-TS[1Nal]GILLDLSRTSLP-OH)

EC50 compared with wildtype p15 or other mutants (ADGRG2-ΔGPS-β): lower EC50 value than wildtype p15
Molecule: CC[C@H](C)[C@H](NC(=O)CNC(=O)[C@H](Cc1ccc(C)cc1)NC(=O)[C@H](CO)NC(=O)[C@@H](N)[C@@H](C)O)C(=O)N[C@@H](CC(C)C)C(=O)N[C@@H](CC(C)C)C(=O)N[C@@H](CC(=O)O)C(=O)N[C@@H](CC(C)C)C(=O)N[C@@H](CO)C(=O)N[C@@H](CCCNC(=N)N)C(=O)N[C@H](C(=O)N[C@@H](CO)C(=O)N[C@@H](CC(C)C)C(=O)N1CCC[C@H]1C(=O)O)[C@@H](C)O [F3Phe(4-Me)] (H-TS[Phe(4-Me)]GILLDLSRTSLP-OH)

EC50 (ADGRG2-ΔGPS-β): 4.7 µM
Molecule: CC[C@H](C)[C@H](NC(=O)CNC(=O)[C@H](Cc1cccc2ccccc12)NC(=O)[C@H](CO)NC(=O)[C@@H](N)C(C)C)C(=O)N[C@@H](CC(C)C)C(=O)N[C@@H](CC(C)C)C(=O)N[C@@H](CC(=O)O)C(=O)N[C@@H](CC(C)C)C(=O)N[C@@H](CO)C(=O)N[C@@H](CCCNC(=N)N)C(=O)N[C@H](C(=O)N[C@@H](CO)C(=O)N[C@@H](CC(C)C)C(=O)N1CCC[C@H]1C(=O)O)[C@@H](C)O [T1V/F3(1-Nal)] (H-VS[1Nal]GILLDLSRTSLP-OH)
EC50 compared with wildtype p15 or other mutants (ADGRG2-ΔGPS-β): significant lower EC50 than other mutants

Molecule: C=C1C(=O)NC(C)C(=O)N(C)C(C)C(=O)NC(C(OC(=O)C(NC(C)=O)C(O)C(C)C)C(C)C)C(=O)N(C)C(C(C)OC)C(=O)OC(C)C(NC(C)=O)C(=O)OC(Cc2ccccc2)C(=O)N1C (centres unmarked) [YM-254890] (Ac-T[PhLac][NMeDha]A[NMeA][X1][NMeT](Me); ester 1-C; configuration not given here)
inhibition of p15-elicited rise in intracellular calcium (ADGRG2): inhibited

p15 activity after alanine substitution (cAMP level) (ADGRG2-FL): greatly impaired p15 activity
Molecule: F3A: p15 alanine-scan mutant F3A (TSAGILLDLSRTSLP)

EC50 of cAMP accumulation (GloSensor assay), HEK293 cells transfected with ADGRG2-ΔGPS-β, increasing concentrations of VPM-p15 (without FITC) [1]: 1.41 µM
fold change of the EC50 of cAMP accumulation (GloSensor assay) against the wildtype p15 peptide, ADGRG2-ΔGPS-β in HEK293 cells [1]: 170 fold
Molecule: FITC-conjugated VPM-p15 (ADGRG2 Stachel peptide p15 T1V/F3Phe(4-Me))

p15 activity after alanine substitution (cAMP level) (ADGRG2-FL): greatly impaired p15 activity
Molecule: R11A: p15 alanine-scan mutant R11A (TSFGILLDLSATSLP)

EC50 (ADGRG2-FL): 274 µM
Molecule: TSFGILLDLSRTSAP [L14A]

EC50 (ADGRG2-FL): 175 µM
EC50 (ADGRG2-ΔGPS-β): 243 µM
Molecule: TSFGILLDLSRTSLP [p15, reference compound]

EC50 compared with wildtype p15 or other mutants (ADGRG2-ΔGPS-β): lower EC50 value than wildtype p15
Molecule: VSFGILLDLSRTSLP [T1V]

cAMP accumulation (GloSensor assay), HEK293 cells transfected with ADGRG2-ΔGPS-β, 100 μM peptide, against wildtype p15 [1]: 3 fold
Molecule: VSFGILLDLSRTSLP [ADGRG2 Stachel peptide p15 T1V]
